The source made the active and inactive calls. For most assays here, no stated cut-off is given here; in the data, actives have a measured IC50 and inactives only a lower limit.
Columns and labels:
[1] = target: Cytochrome P450 3A4 (Homo sapiens, UniProt P08684);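 further: CYP3A4 tested as one member of a cytochrome P450 panel screen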
[2] = tested on: Escherichia coli; test: microbe, parasite or virus in culture
[3] = target: T1, Caspase-3 (Homo sapiens, UniProt P42574); format: functional
T1 sequence (P42574 whole entry): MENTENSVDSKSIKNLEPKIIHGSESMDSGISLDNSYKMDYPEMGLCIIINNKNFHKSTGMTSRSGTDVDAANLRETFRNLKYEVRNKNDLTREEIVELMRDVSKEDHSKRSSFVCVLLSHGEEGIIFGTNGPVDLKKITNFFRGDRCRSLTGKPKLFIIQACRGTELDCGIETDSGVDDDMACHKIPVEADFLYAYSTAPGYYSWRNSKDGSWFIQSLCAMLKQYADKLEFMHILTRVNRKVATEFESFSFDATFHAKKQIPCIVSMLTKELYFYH

[4] = target: T2, Sentrin-specific protease 7 (Homo sapiens, UniProt Q9BQF6); format: functional;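 further: Luminescence-based dose-response confirmation of ultra-high-throughput screening hits, measuring inhibition of SENP7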
T2 sequence (Q9BQF6 whole entry): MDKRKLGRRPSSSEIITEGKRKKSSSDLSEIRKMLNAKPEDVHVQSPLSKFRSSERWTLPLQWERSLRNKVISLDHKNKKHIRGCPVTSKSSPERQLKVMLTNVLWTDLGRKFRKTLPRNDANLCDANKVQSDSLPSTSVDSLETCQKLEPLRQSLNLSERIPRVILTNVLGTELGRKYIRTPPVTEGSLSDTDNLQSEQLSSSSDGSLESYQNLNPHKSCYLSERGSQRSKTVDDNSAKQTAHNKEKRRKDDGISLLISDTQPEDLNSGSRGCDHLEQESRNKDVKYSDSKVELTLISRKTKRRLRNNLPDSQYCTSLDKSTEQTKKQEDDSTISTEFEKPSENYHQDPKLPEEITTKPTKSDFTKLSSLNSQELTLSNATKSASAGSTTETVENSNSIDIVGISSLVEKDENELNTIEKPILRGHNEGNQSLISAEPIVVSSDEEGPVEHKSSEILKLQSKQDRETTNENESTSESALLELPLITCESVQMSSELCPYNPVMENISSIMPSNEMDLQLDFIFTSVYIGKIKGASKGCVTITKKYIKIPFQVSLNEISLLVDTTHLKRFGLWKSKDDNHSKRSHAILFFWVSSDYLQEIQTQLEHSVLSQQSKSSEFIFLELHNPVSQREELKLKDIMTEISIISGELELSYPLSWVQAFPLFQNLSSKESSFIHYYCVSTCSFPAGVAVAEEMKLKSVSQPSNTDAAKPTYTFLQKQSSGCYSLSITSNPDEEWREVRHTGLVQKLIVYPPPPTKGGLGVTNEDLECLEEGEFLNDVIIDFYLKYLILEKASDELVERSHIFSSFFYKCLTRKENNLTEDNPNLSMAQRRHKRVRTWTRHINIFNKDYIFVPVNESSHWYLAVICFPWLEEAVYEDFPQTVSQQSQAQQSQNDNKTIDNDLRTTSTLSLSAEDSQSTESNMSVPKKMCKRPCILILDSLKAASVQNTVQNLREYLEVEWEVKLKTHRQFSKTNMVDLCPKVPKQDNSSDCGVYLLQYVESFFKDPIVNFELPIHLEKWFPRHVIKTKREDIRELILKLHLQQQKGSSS

[5] = target: T3, Sentrin-specific protease 6 (Homo sapiens, UniProt Q9GZR1); format: functional
T3 sequence (Q9GZR1 whole entry): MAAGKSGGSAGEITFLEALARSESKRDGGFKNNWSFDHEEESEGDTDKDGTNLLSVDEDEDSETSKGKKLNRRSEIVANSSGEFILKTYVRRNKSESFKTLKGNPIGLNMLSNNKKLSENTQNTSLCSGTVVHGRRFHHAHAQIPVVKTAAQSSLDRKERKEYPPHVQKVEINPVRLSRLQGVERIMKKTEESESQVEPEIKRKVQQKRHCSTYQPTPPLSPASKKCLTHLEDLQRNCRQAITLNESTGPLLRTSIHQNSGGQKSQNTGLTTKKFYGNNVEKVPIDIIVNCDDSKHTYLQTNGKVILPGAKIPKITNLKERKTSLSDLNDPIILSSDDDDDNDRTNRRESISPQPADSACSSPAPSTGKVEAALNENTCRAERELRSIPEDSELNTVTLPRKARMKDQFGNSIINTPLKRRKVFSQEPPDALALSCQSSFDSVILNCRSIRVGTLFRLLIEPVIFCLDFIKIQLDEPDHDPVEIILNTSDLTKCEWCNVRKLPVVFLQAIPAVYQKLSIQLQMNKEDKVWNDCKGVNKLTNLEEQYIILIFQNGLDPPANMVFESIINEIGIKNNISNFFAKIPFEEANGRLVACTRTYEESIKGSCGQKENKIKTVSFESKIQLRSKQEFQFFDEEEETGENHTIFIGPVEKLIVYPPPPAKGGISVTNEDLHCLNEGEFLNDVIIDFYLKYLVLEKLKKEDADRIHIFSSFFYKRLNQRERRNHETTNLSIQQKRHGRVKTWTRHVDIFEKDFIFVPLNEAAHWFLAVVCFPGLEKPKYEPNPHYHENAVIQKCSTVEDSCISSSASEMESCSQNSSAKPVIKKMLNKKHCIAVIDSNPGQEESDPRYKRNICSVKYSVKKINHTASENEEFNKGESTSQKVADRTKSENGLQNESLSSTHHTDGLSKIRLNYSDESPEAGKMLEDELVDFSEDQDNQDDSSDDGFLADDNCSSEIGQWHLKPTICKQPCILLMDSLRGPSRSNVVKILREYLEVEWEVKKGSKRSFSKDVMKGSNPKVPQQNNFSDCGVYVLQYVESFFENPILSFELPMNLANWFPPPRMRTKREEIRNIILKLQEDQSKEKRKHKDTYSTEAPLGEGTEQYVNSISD

[6] = target: T4, Sentrin-specific protease 8 (Homo sapiens, UniProt Q96LD8); format: functional;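 further: luminescence read-out of SENP8 inhibition, dose-response confirmation following an ultra-high-throughput screen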
T4 sequence (Q96LD8 whole entry): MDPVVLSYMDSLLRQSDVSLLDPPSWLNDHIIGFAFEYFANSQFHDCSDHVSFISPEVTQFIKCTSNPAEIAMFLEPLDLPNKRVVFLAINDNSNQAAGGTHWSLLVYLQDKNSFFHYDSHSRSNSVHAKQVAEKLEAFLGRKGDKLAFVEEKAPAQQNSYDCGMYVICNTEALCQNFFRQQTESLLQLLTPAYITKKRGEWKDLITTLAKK

[7] = target: T4, Sentrin-specific protease 8; test: SENP8 protease inhibitors, SAR follow-up, biochemical, luminescence (AID 504501); format: functional
[8] = target: T1, Caspase-3; test: SAR Analysis of small molecule inhibitors of Sentrin-specific proteases (SENPs) using a Caspase-3 Selectivity assay. [Related pubchem assays (depositor defined):AID2540, AID2599, AID434973, AID489001]; format: functional
[9] = target: T3, Sentrin-specific protease 6; test: SAR Analysis of small molecule inhibitors of Sentrin-specific protease 6 (SENP6) using a Luminescent assay. [Related pubchem assays (depositor defined):AID2582, AID2599]; format: functional
[10] = target: T2, Sentrin-specific protease 7; test: SENP7 protease inhibitors, SAR follow-up, biochemical, luminescence (AID 504497); format: functional
[11] = target: T5, Corticotropin-releasing factor receptor 2/Corticotropin-releasing factor-binding protein (Homo sapiens, UniProt P24387+Q13324); test: Dose Response confirmation of uHTS hits for small molecule antagonists of the CRF-binding protein and CRF-R2 receptor complex.; format: functional; conditions: read-out: IC50_Mean
T5 sequence (Q13324 whole entry): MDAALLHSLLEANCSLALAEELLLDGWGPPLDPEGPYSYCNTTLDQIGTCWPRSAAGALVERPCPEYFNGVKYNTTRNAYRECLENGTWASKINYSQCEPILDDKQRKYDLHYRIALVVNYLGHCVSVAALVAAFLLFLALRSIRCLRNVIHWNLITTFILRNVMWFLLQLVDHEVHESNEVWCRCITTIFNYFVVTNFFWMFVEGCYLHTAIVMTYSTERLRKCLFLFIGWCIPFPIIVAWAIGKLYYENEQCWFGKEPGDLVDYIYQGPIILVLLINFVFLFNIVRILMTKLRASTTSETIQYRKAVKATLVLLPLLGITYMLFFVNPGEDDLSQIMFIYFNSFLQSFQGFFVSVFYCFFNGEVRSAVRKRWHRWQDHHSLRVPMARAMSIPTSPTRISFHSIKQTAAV
T5 sequence (P24387 whole entry): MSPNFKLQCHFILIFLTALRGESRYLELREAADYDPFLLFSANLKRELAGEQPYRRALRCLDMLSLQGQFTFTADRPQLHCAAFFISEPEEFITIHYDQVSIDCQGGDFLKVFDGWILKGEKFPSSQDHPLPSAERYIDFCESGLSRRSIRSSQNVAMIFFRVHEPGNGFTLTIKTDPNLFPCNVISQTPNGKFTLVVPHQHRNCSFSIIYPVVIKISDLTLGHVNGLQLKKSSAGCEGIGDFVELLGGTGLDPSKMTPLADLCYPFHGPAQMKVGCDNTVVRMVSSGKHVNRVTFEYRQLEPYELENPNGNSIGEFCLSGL

[12] = target: T5, Corticotropin-releasing factor receptor 2/Corticotropin-releasing factor-binding protein; test: activators of CRF receptor 2 with binding protein – uHTS hits, confirmation (AID 602473); format: functional; conditions: read-out: EC50_Mean
[13] = CRF-BP/CRF-R2 complex antagonists, dose response, cell-based, uHTS hits, 384-well (AID 651639); format: functional, Homo sapiens; conditions: read-out: IC50_Mean

Cytochrome P450 3A4, sequence (P08684 whole entry): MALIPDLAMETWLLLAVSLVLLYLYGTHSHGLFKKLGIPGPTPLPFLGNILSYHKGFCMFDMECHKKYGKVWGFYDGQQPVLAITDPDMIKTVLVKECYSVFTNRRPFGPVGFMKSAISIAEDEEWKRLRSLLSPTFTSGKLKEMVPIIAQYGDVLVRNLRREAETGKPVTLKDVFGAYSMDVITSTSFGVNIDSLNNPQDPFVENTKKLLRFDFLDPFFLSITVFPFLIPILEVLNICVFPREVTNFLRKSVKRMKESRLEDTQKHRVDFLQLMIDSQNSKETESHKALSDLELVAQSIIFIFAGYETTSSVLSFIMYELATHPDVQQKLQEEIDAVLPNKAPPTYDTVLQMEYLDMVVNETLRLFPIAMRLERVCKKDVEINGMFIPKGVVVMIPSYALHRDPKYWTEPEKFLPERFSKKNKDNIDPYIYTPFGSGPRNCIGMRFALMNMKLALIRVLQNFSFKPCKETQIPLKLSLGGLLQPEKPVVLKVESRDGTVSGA

## CS(=O)(=O)N1CCC2(CC1)CN(C(c1ccccc1)c1ccccc1)C2
[1]
  AC50: inconclusive

## Cc1ccc(-c2cc(C(=O)OCC(=O)N(C)c3c(N)n(Cc4ccccc4)c(=O)[nH]c3=O)c3ccccc3n2)o1
[2]
  AC50: 25.8 µM (active)

## COc1ccc(CNC(C)(C)C)cc1Cl.Cl
[1]
  AC50: inconclusive

## CSc1nc2ccc(NC(=O)c3cc4ccccc4o3)cc2s1
[3]
  IC50: > 100 µM (inactive)
[4]
  IC50: > 100 µM (inactive)
[5]
  IC50: 13.5 µM (active)
[6]
  IC50: 94.3 µM (active)
[7]
  IC50: 0.869 µM (active)
[8]
  IC50: 1.41 µM (active)
[9]
  IC50: 0.905 µM (active)
[10]
  IC50: 0.896 µM (active)

## CC1(C)CC(=O)c2cnc(N)nc2C1
[1]
  AC50: inconclusive

## COC(=O)C1=NN(c2ccccc2)C2(S1)SC(C(C)=O)=C(C)N2c1ccccc1 (stereo not given)
[11]
  IC50: 25.7 µM (active)
[12]
  EC50: > 53 µM (inactive)
[13]
  IC50: 19 µM (active)
